BigSolDB 2.1

Question: With `C[C@@H]1CC[C@@]2(OC1)O[C@H]1C[C@H]3[C@@H]4CC=C5C[C@@H](O)CC[C@]5(C)[C@H]4CC[C@]3(C)[C@H]1[C@@H]2C` as the molecule, how does the solubility (mole fraction) (in ethanol, 289.15 K) read?
Answer: 0.00106

Question: And the solubility (mole fraction) (in ethanol, 301.05 K)?
Answer: 0.00147

Question: What about the solubility (mole fraction) (in ethanol, 305.75 K) of the same molecule?
Answer: 0.0017

Question: And the solubility (mole fraction) (in ethanol, 312.35 K)?
Answer: 0.00188

Question: What about the solubility (mole fraction) (in ethanol, 312.65 K) of the same molecule?
Answer: 0.00196

Question: And the solubility (mole fraction) (in ethanol, 316.65 K)?
Answer: 0.00227

Question: What about the solubility (mole fraction) (in ethanol, 320.25 K) of the same molecule?
Answer: 0.00253

Question: And the solubility (mole fraction) (in ethanol, 322.35 K)?
Answer: 0.00269

Question: And the solubility (mole fraction) (in ethanol, 324.05 K)?
Answer: 0.0029

Question: What about the solubility (mole fraction) (in ethanol, 325.65 K) of the same molecule?
Answer: 0.00306

Question: And the solubility (mole fraction) (in ethanol, 327.65 K)?
Answer: 0.00324

Question: What about the solubility (mole fraction) (in ethanol, 329.05 K) of the same molecule?
Answer: 0.00338

Question: What about the solubility (mole fraction) (in ethanol, 331.25 K) of the same molecule?
Answer: 0.00353

Question: What about the solubility (mole fraction) (in ethanol, 332.35 K) of the same molecule?
Answer: 0.00372

Question: And the solubility (mole fraction) (in ethanol, 334.15 K)?
Answer: 0.00388

Question: And the solubility (mole fraction) (in isobutanol, 305.15 K)?
Answer: 0.00236

Question: What about the solubility (mole fraction) (in isobutanol, 306.95 K) of the same molecule?
Answer: 0.00266

Question: What about the solubility (mole fraction) (in isobutanol, 307.65 K) of the same molecule?
Answer: 0.00296

Question: What about the solubility (mole fraction) (in isobutanol, 308.65 K) of the same molecule?
Answer: 0.00332

Question: And the solubility (mole fraction) (in isobutanol, 310.15 K)?
Answer: 0.00364

Question: And the solubility (mole fraction) (in isobutanol, 311.65 K)?
Answer: 0.00416

Question: And the solubility (mole fraction) (in isobutanol, 312.95 K)?
Answer: 0.00456

Question: What about the solubility (mole fraction) (in isobutanol, 313.85 K) of the same molecule?
Answer: 0.00499

Question: What about the solubility (mole fraction) (in isobutanol, 314.85 K) of the same molecule?
Answer: 0.0054

Question: And the solubility (mole fraction) (in isobutanol, 316.15 K)?
Answer: 0.00582

Question: What about the solubility (mole fraction) (in isobutanol, 317.65 K) of the same molecule?
Answer: 0.00625

Question: And the solubility (mole fraction) (in isobutanol, 319.65 K)?
Answer: 0.00672

Question: What about the solubility (mole fraction) (in isobutanol, 320.65 K) of the same molecule?
Answer: 0.0071

Question: And the solubility (mole fraction) (in isobutanol, 322.15 K)?
Answer: 0.00754

Question: What about the solubility (mole fraction) (in isobutanol, 323.85 K) of the same molecule?
Answer: 0.00797

Question: What about the solubility (mole fraction) (in isobutanol, 325.15 K) of the same molecule?
Answer: 0.00836

Question: What about the solubility (mole fraction) (in isobutanol, 326.95 K) of the same molecule?
Answer: 0.00884

Question: What about the solubility (mole fraction) (in isobutanol, 328.65 K) of the same molecule?
Answer: 0.00931

Question: And the solubility (mole fraction) (in isobutanol, 330.65 K)?
Answer: 0.00979

Question: What about the solubility (mole fraction) (in isooctanol, 296.55 K) of the same molecule?
Answer: 0.0073

Question: And the solubility (mole fraction) (in isooctanol, 298.55 K)?
Answer: 0.00809

Question: What about the solubility (mole fraction) (in isooctanol, 299.75 K) of the same molecule?
Answer: 0.0091

Question: And the solubility (mole fraction) (in isooctanol, 303.15 K)?
Answer: 0.00992

Question: What about the solubility (mole fraction) (in isooctanol, 305.65 K) of the same molecule?
Answer: 0.0106

Question: And the solubility (mole fraction) (in isooctanol, 307.15 K)?
Answer: 0.0114

Question: What about the solubility (mole fraction) (in isooctanol, 309.25 K) of the same molecule?
Answer: 0.012

Question: What about the solubility (mole fraction) (in isooctanol, 311.85 K) of the same molecule?
Answer: 0.0129

Question: And the solubility (mole fraction) (in isooctanol, 314.65 K)?
Answer: 0.0139

Question: What about the solubility (mole fraction) (in isooctanol, 315.95 K) of the same molecule?
Answer: 0.0146

Question: What about the solubility (mole fraction) (in isooctanol, 318.25 K) of the same molecule?
Answer: 0.0154

Question: What about the solubility (mole fraction) (in isooctanol, 321.05 K) of the same molecule?
Answer: 0.0163

Question: And the solubility (mole fraction) (in isooctanol, 323.25 K)?
Answer: 0.017

Question: What about the solubility (mole fraction) (in isooctanol, 324.95 K) of the same molecule?
Answer: 0.0177

Question: What about the solubility (mole fraction) (in isooctanol, 326.55 K) of the same molecule?
Answer: 0.0185

Question: What about the solubility (mole fraction) (in isooctanol, 327.45 K) of the same molecule?
Answer: 0.0192

Question: And the solubility (mole fraction) (in isooctanol, 329.75 K)?
Answer: 0.0199

Question: What about the solubility (mole fraction) (in n-butanol, 295.75 K) of the same molecule?
Answer: 0.00469

Question: And the solubility (mole fraction) (in n-butanol, 298.15 K)?
Answer: 0.0052

Question: What about the solubility (mole fraction) (in n-butanol, 300.15 K) of the same molecule?
Answer: 0.00572

Question: What about the solubility (mole fraction) (in n-butanol, 304.65 K) of the same molecule?
Answer: 0.00624

Question: And the solubility (mole fraction) (in n-butanol, 307.65 K)?
Answer: 0.00659

Question: And the solubility (mole fraction) (in n-butanol, 309.65 K)?
Answer: 0.00694

Question: What about the solubility (mole fraction) (in n-butanol, 311.55 K) of the same molecule?
Answer: 0.00731

Question: And the solubility (mole fraction) (in n-butanol, 312.65 K)?
Answer: 0.00767

Question: What about the solubility (mole fraction) (in n-butanol, 314.25 K) of the same molecule?
Answer: 0.00805

Question: What about the solubility (mole fraction) (in n-butanol, 315.85 K) of the same molecule?
Answer: 0.0084

Question: What about the solubility (mole fraction) (in n-butanol, 317.35 K) of the same molecule?
Answer: 0.00914

Question: And the solubility (mole fraction) (in n-butanol, 319.15 K)?
Answer: 0.00956

Question: And the solubility (mole fraction) (in n-butanol, 320.65 K)?
Answer: 0.00996

Question: What about the solubility (mole fraction) (in n-butanol, 323.45 K) of the same molecule?
Answer: 0.0105

Question: And the solubility (mole fraction) (in n-butanol, 325.45 K)?
Answer: 0.011

Question: And the solubility (mole fraction) (in n-butanol, 326.45 K)?
Answer: 0.0114

Question: What about the solubility (mole fraction) (in n-butanol, 328.45 K) of the same molecule?
Answer: 0.012

Question: And the solubility (mole fraction) (in n-pentanol, 290.75 K)?
Answer: 0.00406

Question: And the solubility (mole fraction) (in n-pentanol, 292.75 K)?
Answer: 0.00455

Question: What about the solubility (mole fraction) (in n-pentanol, 296.15 K) of the same molecule?
Answer: 0.00507

Question: And the solubility (mole fraction) (in n-pentanol, 299.65 K)?
Answer: 0.00566

Question: What about the solubility (mole fraction) (in n-pentanol, 301.55 K) of the same molecule?
Answer: 0.00615

Question: And the solubility (mole fraction) (in n-pentanol, 304.15 K)?
Answer: 0.00663

Question: And the solubility (mole fraction) (in n-pentanol, 307.65 K)?
Answer: 0.00722

Question: What about the solubility (mole fraction) (in n-pentanol, 309.85 K) of the same molecule?
Answer: 0.00775

Question: And the solubility (mole fraction) (in n-pentanol, 312.45 K)?
Answer: 0.00838

Question: What about the solubility (mole fraction) (in n-pentanol, 314.45 K) of the same molecule?
Answer: 0.00888

Question: And the solubility (mole fraction) (in n-pentanol, 316.75 K)?
Answer: 0.00933

Question: What about the solubility (mole fraction) (in n-pentanol, 317.35 K) of the same molecule?
Answer: 0.00978

Question: What about the solubility (mole fraction) (in n-pentanol, 318.75 K) of the same molecule?
Answer: 0.0105

Question: And the solubility (mole fraction) (in n-pentanol, 320.65 K)?
Answer: 0.0111

Question: And the solubility (mole fraction) (in n-pentanol, 322.65 K)?
Answer: 0.0116

Question: And the solubility (mole fraction) (in n-pentanol, 324.15 K)?
Answer: 0.0123

Question: What about the solubility (mole fraction) (in n-pentanol, 325.75 K) of the same molecule?
Answer: 0.0128

Question: What about the solubility (mole fraction) (in n-pentanol, 327.15 K) of the same molecule?
Answer: 0.0134

Question: What about the solubility (mole fraction) (in n-pentanol, 329.15 K) of the same molecule?
Answer: 0.0139

Question: What about the solubility (mole fraction) (in n-propanol, 290.15 K) of the same molecule?
Answer: 0.00163

Question: What about the solubility (mole fraction) (in n-propanol, 292.95 K) of the same molecule?
Answer: 0.00205

Question: And the solubility (mole fraction) (in n-propanol, 295.55 K)?
Answer: 0.00243

Question: And the solubility (mole fraction) (in n-propanol, 301.75 K)?
Answer: 0.00278

Question: And the solubility (mole fraction) (in n-propanol, 305.25 K)?
Answer: 0.00307

Question: What about the solubility (mole fraction) (in n-propanol, 307.95 K) of the same molecule?
Answer: 0.0034

Question: And the solubility (mole fraction) (in n-propanol, 310.95 K)?
Answer: 0.0039

Question: And the solubility (mole fraction) (in n-propanol, 314.75 K)?
Answer: 0.00424

Question: What about the solubility (mole fraction) (in n-propanol, 318.15 K) of the same molecule?
Answer: 0.00473

Question: What about the solubility (mole fraction) (in n-propanol, 320.05 K) of the same molecule?
Answer: 0.00506

Question: What about the solubility (mole fraction) (in n-propanol, 322.75 K) of the same molecule?
Answer: 0.00542

Question: What about the solubility (mole fraction) (in n-propanol, 326.35 K) of the same molecule?
Answer: 0.0059

Question: And the solubility (mole fraction) (in n-propanol, 327.85 K)?
Answer: 0.00622

Question: What about the solubility (mole fraction) (in n-propanol, 329.25 K) of the same molecule?
Answer: 0.00663

Question: And the solubility (mole fraction) (in n-propanol, 330.65 K)?
Answer: 0.00696

Question: And the solubility (mole fraction) (in n-propanol, 332.65 K)?
Answer: 0.0073

Question: What about the solubility (mole fraction) (in tert-butanol, 302.15 K) of the same molecule?
Answer: 0.000811

Question: And the solubility (mole fraction) (in tert-butanol, 304.65 K)?
Answer: 0.00108

Question: And the solubility (mole fraction) (in tert-butanol, 306.65 K)?
Answer: 0.00134

Question: And the solubility (mole fraction) (in tert-butanol, 308.15 K)?
Answer: 0.00151

Question: And the solubility (mole fraction) (in tert-butanol, 310.65 K)?
Answer: 0.00175

Question: And the solubility (mole fraction) (in tert-butanol, 312.15 K)?
Answer: 0.00198

Question: What about the solubility (mole fraction) (in tert-butanol, 313.65 K) of the same molecule?
Answer: 0.00223

Question: And the solubility (mole fraction) (in tert-butanol, 314.15 K)?
Answer: 0.00244

Question: And the solubility (mole fraction) (in tert-butanol, 315.95 K)?
Answer: 0.00274

Question: And the solubility (mole fraction) (in tert-butanol, 317.75 K)?
Answer: 0.00307

Question: And the solubility (mole fraction) (in tert-butanol, 321.15 K)?
Answer: 0.00343

Question: And the solubility (mole fraction) (in tert-butanol, 323.15 K)?
Answer: 0.00368

Question: What about the solubility (mole fraction) (in tert-butanol, 325.15 K) of the same molecule?
Answer: 0.00392

Question: And the solubility (mole fraction) (in tert-butanol, 326.65 K)?
Answer: 0.00427

Question: And the solubility (mole fraction) (in tert-butanol, 328.65 K)?
Answer: 0.00467

Question: What about the solubility (mole fraction) (in tert-butanol, 330.75 K) of the same molecule?
Answer: 0.00497

Question: What about the solubility (mole fraction) (in tert-butanol, 332.45 K) of the same molecule?
Answer: 0.00529
